Results as given in patent publication US9273067B2, “Pyrazolopyrimidine macrocycles as inhibitors of human immunodeficiency virus replication” (BRISTOL-MYERS SQUIBB COMPANY, priority 2014, dated 2016).

What follows are compounds tested on NL-RLuc virus (recombinant HIV NL4-3 with Renilla Luciferase) in MT-2 cells (assay: Inhibition of HIV replication (NL-RLuc virus in MT-2 cells, luciferase readout)). Conditions: MT2, 120 h, NL-RLuc virus infecting MT-2 cells, 5 days of incubation, 10% FBS, luciferase quantitation; at least 2 experiments.
Assay type: cell-based, human immunodeficiency virus (HIV)
Description: Inhibition of HIV Replication:
A recombinant NL-RLuc proviral clone was constructed in which a section of the nef gene from NL4-3 was replaced with the Renilla Luciferase gene. This virus is fully infectious and can undergo multiple cycles of replication in cell culture. In addition, the luciferous reporter provides a simple and easy method for quantitating the extent of virus growth and consequently, the antiviral activity of test compounds. The plasmid pNLRLuc contains the proviral NL-Rluc DNA cloned into pUC 18 at the PvuII site. The NL-RLuc virus was prepared by transfection of 293T cells with the plasmid pNLRLuc. Transfections were performed using the LipofectAMINE PLUS kit from Invitrogen (Carlsbad, Calif.) according to the manufacturer and the virus generated was titered in MT-2 cells. For susceptibility analyses, the titrated virus was used to infect MT-2 cells in the presence of compound, and after 5 days of incubation, cells were processed and quantitated for virus growth by the amount of expressed luciferase. Assay media was RPMI 1640 supplemented with 10% heat inactivated fetal bovine serum (FBS), 100 units/ml penicillin G/100 units/ml streptomycin, 10 mM HEPES buffer pH 7.55 and 2 mM L-glutamine. The results from at least 2 experiments were used to calculate the EC50 values. Luciferase was quantitated using the Dual Luciferase kit from Promega (Madison, Wis.). Susceptibility of viruses to compounds was determined by incubation in the presence of serial dilutions of the compound. The 50% effective concentration (EC50) was calculated by using the exponential form of the median effect equation where (Fa)=1/[1+(ED50/drug conc.)^m] (Johnson V A, Byington R T. Infectivity Assay. In Techniques in HIV Research. ed. Aldovini A, Walker B D. 71-76. New York: Stockton Press. 1990).

SMILES	EC50 [nM]
Cc1nc2cc3nn2c(c1[C@H](OC(C)(C)C)C(=O)O)N1CCC(C)(CC1)OCC=CC[C@H](C)Oc1cc(F)c(F)cc1COC3 [Example 33, (2S)-2-(tert-Butoxy)-2-[(20S)-15,16-difluoro-4,20,26-trimethyl-11,19,25-trioxa-1,5,7,8-tetraazapentacyclo[24.2.2.1^6,^9.0^2,^7.0^13,^18]hentriaconta-2,4,6(31),8,13,15,17,22-octaen-3-yl]acetic acid]	6
Cc1nc2cc3nn2c(c1[C@H](OC(C)(C)C)C(=O)O)N1CCC(C)(CC1)OCCCC[C@H](C)Oc1cc(Cl)ccc1COC3 [Example 35, (2S)-2-(tert-Butoxy)-2-[(20S)-16-chloro-4,20,26-trimethyl-11,19,25-trioxa-1,5,7,8-tetraazapentacyclo[24.2.2.1^6,^9.0^2,^7.0^13,^18]hentriaconta-2,4,6(31),8,13,15,17-heptaen-3-yl]acetic acid]	2
Cc1ccc2c(c1)O[C@@H](C)CCCCOC1(C)CCN(CC1)c1c([C@H](OC(C)(C)C)C(=O)O)c(C)nc3cc(nn13)COC2 [Example 38, (2S)-2-(tert-Butoxy)-2-[(20S)-4,16,20,26-tetramethyl-11,19,25-trioxa-1,5,7,8-tetraazapentacyclo[24.2.2.1^6,^9.0^2,^7.0^13,^18]hentriaconta-2,4,6(31),8,13(18),14,16-heptaen-3-yl]acetic acid]	2
Cc1nc2cc3nn2c(c1[C@H](OC(C)(C)C)C(=O)O)N1CCC(C)(CC1)OCCCC[C@H](C)Oc1cc(F)ccc1CCC3 [Example 39, (2S)-2-(tert-Butoxy)-2-[(20S)-16-fluoro-4,20,26-trimethyl-19,25-dioxa-1,5,7,8-tetraazapentacyclo[24.2.2.1^6,^9.0^2,^7.0^13,^18]hentriaconta-2,4,6(31),8,13(18),14,16-heptaen-3-yl]acetic acid]	5
Cc1nc2cc3nn2c(c1[C@H](OC(C)(C)C)C(=O)O)N1CCC(C)(CC1)OCCCC[C@H](C)Oc1c(F)cc(F)cc1CCC3 [Example 41, (2S)-2-(tert-Butoxy)-2-[(20S)-15,17-difluoro-4,20,26-trimethyl-19,25-dioxa-1,5,7,8-tetraazapentacyclo[24.2.2.1^6,^9.0^2,^7.0^13,^18]hentriaconta-2,4,6(31),8,13(18),14,16-heptaen-3-yl]acetic acid]	10
Cc1nc2cc3nn2c(c1[C@H](OC(C)(C)C)C(=O)O)N1CCC(C)(CC1)OCCCC[C@H](C)Oc1ccc(F)c(F)c1CCC3 [Example 42, (2S)-2-(tert-Butoxy)-2-[(20S)-14,15-difluoro-4,20,26-trimethyl-19,25-dioxa-1,5,7,8-tetraazapentacyclo[24.2.2.1^6,^9.0^2,^7.0^13,^18]hentriaconta-2,4,6(31),8,13(18),14,16-heptaen-3-yl]acetic acid]	2
Cc1nc2cc3nn2c(c1[C@H](OC(C)(C)C)C(=O)O)N1CCC(C)(CC1)OCCCC[C@H](C)Oc1cc(F)c(F)cc1CCC3 [Example 43, (2S)-2-(tert-Butoxy)-2-[(20S)-15,16-difluoro-4,20,26-trimethyl-19,25-dioxa-1,5,7,8-tetraazapentacyclo[24.2.2.1^6,^9.0^2,^7.0^13,^18]hentriaconta-2,4,6(31),8,13(18),14,16-heptaen-3-yl]acetic acid]	1
Cc1nc2cc3nn2c(c1[C@H](OC(C)(C)C)C(=O)O)N1CCC(C)(CC1)OCCCC[C@@H](COCc1ccccc1)OC3 [Example 48, (2S)-2-[(12S)-12-[(benzyloxy)methyl]-4,18-dimethyl-11,17-dioxa-1,5,7,8-tetraazatetracyclo[16.2.2.1^6,^9.0^2,^7]tricosa-2,4,6(23),8-tetraen-3-yl]-2-(tert-butoxy)acetic acid]	111

Same assay, conditions: NL-RLuc virus infecting MT-2 cells, 5 days of incubation, 10% FBS, luciferase quantitation; at least 2 experiments; read-out: EC50

SMILES	EC50 [nM]
Cc1ccc2c(c1)O[C@@H](C)C/C=C\COC1(C)CCN(CC1)c1c([C@H](OC(C)(C)C)C(=O)O)c(C)nc3cc(nn13)COC2 [Example 36, (2S)-2-(tert-Butoxy)-2-[(20S,22Z)-4,16,20,26-tetramethyl-11,19,25-trioxa-1,5,7,8-tetraazapentacyclo[24.2.2.1^6,^9.0^2,^7.0^13,^18]hentriaconta-2,4,6(31),8,13(18),14,16,22-octaen-3-yl]acetic acid]	3690
Cc1ccc2c(c1)O[C@@H](C)C/C=C/COC1(C)CCN(CC1)c1c([C@H](OC(C)(C)C)C(=O)O)c(C)nc3cc(nn13)COC2 [Example 37, (2S)-2-(tert-Butoxy)-2-[(20S,22E)-4,16,20,26-tetramethyl-11,19,25-trioxa-1,5,7,8-tetraazapentacyclo[24.2.2.1^6,^9.0^2,^7.0^13,^18]hentriaconta-2,4,6(31),8,13(18),14,16,22-octaen-3-yl]acetic acid]	4
Cc1nc2cc3nn2c(c1[C@H](OC(C)(C)C)C(=O)O)N1CCC(C)(CC1)OCCCC[C@H](C)Oc1cc(F)ccc1CCC3 [Example 40, (2S)-2-(tert-Butoxy)-2-[(20S)-16-fluoro-4,20,26-trimethyl-19,25-dioxa-1,5,7,8-tetraazapentacyclo[24.2.2.1^6,^9.0^2,^7.0^13,^18]hentriaconta-2,4,6(31),8,13(18),14,16-heptaen-3-yl]acetic acid]	31

Same assay, conditions: {}

SMILES	EC50 [nM]
CCCC1CCCCOC2(C)CCN(CC2)c2c([C@H](OC(C)(C)C)C(=O)O)c(C)nc3cc(nn23)COCc2ccc(C)cc2O1 (stereo partly drawn) [Example 44, (2S)-2-(tert-Butoxy)-2-{4,16,26-trimethyl-20-propyl-11,19,25-trioxa-1,5,7,8-tetraazapentacyclo[24.2.2.1^6,^9.0^2,^7.0^13,^18]hentriaconta-2,4,6(31),8,13(18),14,16-heptaen-3-yl}acetic acid]	5
CCCC1CCCCOC2(C)CCN(CC2)c2c([C@H](OC(C)(C)C)C(=O)O)c(C)nc3cc(nn23)COCc2ccc(C)cc2O1 (stereo partly drawn) [Example 45, (2S)-2-(tert-butoxy)-2-{4,16,26-trimethyl-20-propyl-11,19,25-trioxa-1,5,7,8-tetraazapentacyclo[24.2.2.1^6,^9.0^2,^7.0^13,^18]hentriaconta-2,4,6(31),8,13(18),14,16-heptane-3-yl}acetic acid]	35
Cc1ccc(C2CCCCOC3(C)CCN(CC3)c3c([C@H](OC(C)(C)C)C(=O)O)c(C)nc4cc(nn34)CO2)cc1 (stereo partly drawn) [Example 46, (2S)-2-(tert-butoxy)-2-[4,18-dimethyl-12-(4-methylphenyl)-11,17-dioxa-1,5,7,8-tetraazatetracyclo[16.2.2.1^6,^9.0^2,^7]tricosa-2,4,6(23),8-tetraen-3-yl]acetic acid]	735
Cc1ccc(C2CCCCOC3(C)CCN(CC3)c3c([C@H](OC(C)(C)C)C(=O)O)c(C)nc4cc(nn34)CO2)cc1 (stereo partly drawn) [Example 47, (2S)-2-(tert-butoxy)-2-[4,18-dimethyl-12-(4-methylphenyl)-11,17-dioxa-1,5,7,8-tetraazatetracyclo[16.2.2.1^6,^9.0^2,^7]tricosa-2,4,6(23),8-tetraen-3-yl]acetic acid]	1590
CCCC1CCCCOC2(C)CCN(CC2)c2c([C@H](OC(C)(C)C)C(=O)O)c(C)nc3cc(nn23)COCc2cc(F)ccc2O1 (stereo partly drawn) [Example 49, (2S)-2-(tert-butoxy)-2-{15-fluoro-4,26-dimethyl-20-propyl-11,19,25-trioxa-1,5,7,8-tetraazapentacyclo[24.2.2.1^6,^9.0^2,^7.0^13,^18]hentriaconta-2,4,6(31),8,13(18),14,16-heptaen-3-yl}acetic acid]	5
